Reference: patent US8637670B2, “Imidazo [4,5-C]quinoline derivatives and their use in the treatment of tumors and/or inflammation” (Piramal Enterprises Limited, priority 2009, dated 2014)

Experiments:
PANC 1 = experiment: Cytotoxicity, propidium iodide assay, PANC 1; format: cell-based; details: Homo sapiens; Pancreatic, PANC 1, 48 hours treatment; read-out: IC50, C5a (PANC 1)
Experimental: The assay was designed as in the reference, Anticancer Drugs, 2002, 13, 1-8, the disclosure of which is incorporated by reference for the teaching of the assay.
Cells from cell lines as mentioned in the table given below were seeded at a density of 3000 cells/well in a white opaque 96-well plate. Following incubation at 37° C./5% CO2 for a period of 18-24 hours, the cells were treated with various concentrations (stock solution was prepared in DMSO and subsequent dilutions were made in media as per ATCC guidelines) of the compounds of Example 1-40 was for a period of 48 hours. At the end of treatment, the spent culture medium was discarded, the cells were washed with 1×PBS and 200 μl of 7 μg/ml propidium iodide was added to each well. The plates were frozen at −70° C. for at least 24 hours. For analysis, the plates were brought to RT, allowed to thaw and were read in PoleStar fluorimeter with the fluorescence setting. The percentage of viable cells in the non-treated set of wells was considered to be 100 and the percentage viability following treatment was calculated accordingly. IC50 values were calculated from graphs plotted using these percentages. Table 4 depicts the IC50 values of compounds of Example 1-40 in individual cell lines.
The abbreviations for the Cell Lines as used in Table 4 are: […]

PI3K α = experiment: PI3K activity assay, cell-based ELISA of AKT (Ser 473) phosphorylation; details: Homo sapiens, Ovarian cell line A2780, 20% FCS stimulation
Experimental: (§1) The assay was designed as in the reference, Biochemical Journal, 2000, 350, 717-722, the disclosure of which is incorporated by reference for the teaching of the assay.
(§2) Seed cells (Ovarian cell line A2780, ATCC) were plated in a 96 well microtitre plate at a density of 50,000 cells/cm^2 in appropriate complete cell culture medium. The cells were allowed to adhere for 18-24 hours. The cells were allowed to starve for 24 hours. The cells were pretreated (in triplicates) with the compounds of Example 1-40 (stock solution was prepared in DMSO and subsequent dilutions were made in kinase buffer) at a concentration of 10 μM for one hour. Then the cells were stimulated with 20% FCS for 30 minutes. A typical assay would consist of a set of unstimulated cells, a set of stimulated cells and a set of cells treated with compounds of Example 1-40 and a set of cells treated with the stimulator. The medium was discarded. The cells were fixed with 100 μL of 3.7% formaldehyde for 15 minutes. The formaldehyde was discarded by inverting the plate and tapping it on a thick tissue paper layer to remove traces. The cells were washed and permeabilized with 200 μL PBS+Triton-X 100 solution (hereafter referred to as PBS-Triton, containing 0.1% triton-X 100 in 1×PBS) three times, incubating the cells each time for 5 minutes. 100 μL blocking solution (10% FCS in PBS-Triton) was added and incubated for 1 hour at 25° C. The blocking solution was discarded and cells were incubated with the primary antibody in PBS-Triton at a dilution of 1:500 for 1 hour at RT (25° C.). [The primary antibody is Phospho-AKT (Ser 473); Cell Signaling; USA, Cat. No. 9271]. The primary antibody solution was discarded and the cells were washed 3 times with PBS-Triton solution and incubated with the HRP-conjugated secondary antibody in PBS-Triton at a dilution of 1:500 for 1 hour at RT (25° C.). The cells were washed 3 times with PBS-Triton followed by two washes with PBS (to remove traces of triton-X 100). The OPD (o-phenylene diamine dihydrochloride) substrate was prepared for detection of the signal by dissolving one tablet set (two tablets) of SigmaFast OPD (Sigma, USA, Cat No. P9187) in 20 mL distilled water. It should be kept protected from light. 100 μL OPD solutions was added to the wells and the plate was incubated in the dark for 3-5 minutes (depending upon the development of the color). The reaction was stopped by adding 50 μL 2 NH2SO4. The absorbance was measured at 490 nm. The values were expressed in the treated samples, in terms of percentage or fold decrease in AKT phosphorylation with respect to the induced sample. PI-103 (Calbiochem, USA) was used as a standard.

U 373 = experiment: Cytotoxicity, propidium iodide assay, U 373; format: cell-based; details: Homo sapiens, U373 MG; Glioblastoma, U 373, 48 hours treatment; read-out: IC50, C7a (U 373)
How it was run: (§3)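 IC50 values come from percentage viability curves, with untreated wells set as 100%. Propidium iodide (7 μg/ml) fluorescence was measured after a 48-hour compound exposure and a freeze at −70° C. of at least 24 hours.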

A549 = experiment: Cytotoxicity, propidium iodide assay, A549; format: cell-based; details: Homo sapiens; Lung, A549, 48 hours treatment; read-out: IC50, C1a (A549)
How it was run: as §3

PC3 = experiment: Cytotoxicity, propidium iodide assay, PC3; format: cell-based; details: Homo sapiens, PC-3; Prostate, PC3, 48 hours treatment; read-out: IC50, C2a (PC3)
How it was run: as §3

mTOR = mTOR activity assay (cell-based); details: Homo sapiens, Ovarian cell line A2780
Experimental: as §1, §2

TNF-α = experiment: Human monocyte assay, LPS-stimulated TNF-α (ELISA); format: cell-based; details: human monocytes, 1 μg/ml LPS, 5 hours, read-out: TNFα (IC50)
Experimental: The assay was designed as in the reference, Physiol. Res., 2003, 52, 593-598, the disclosure of which is incorporated by reference for the teaching of the assay.
Peripheral blood mononuclear cells (hPBMC) were harvested from human blood and suspended in RPMI 1640 culture medium containing 10% FCS, 100 U/mL penicillin and […] streptomycin (assay medium). Monocytes in the hPBMCs were counted using a Coulter Counter following which the cells were resuspended at 2×10^5 monocytes/mL. A cell suspension containing 2×10^4 monocytes was aliquoted per well of a 96-well plate. Subsequently, the hPBMCs were incubated for 4-5 hours at 37° C. under 5% CO2 (During the incubation, the monocytes adhered to the bottom of 96-well plastic culture plate). Following the incubation, the non-adherent lymphocytes were washed with assay medium and the adherent monocytes re-fed with assay medium. After a 48-hour incubation period (37° C., 5% CO2), monocytes were pretreated with various concentrations of compounds of Example 1-40 (prepared in DMSO) or vehicle (0.5% DMSO) for 30 minutes and stimulated with 1 μg/ml LPS (Escherchia coli 0111:B4, Sigma Chemical Co., St. Louis, Mo.). The incubation was continued for 5 hours at 37° C., 5% CO2. Supernatants were harvested, assayed for IL-6 and TNF-α by ELISA as described by the manufacturer (BD Biosciences, USA). Dexamethasone (10 μM) was used as standard for this assay. The 50% inhibitory concentration (IC50) values were calculated by a nonlinear regression method. In all experiments, a parallel plate was run to ascertain the toxicity of compounds of Example 1-40. The toxicity was determined using the MTS assay as described in Am. J. Physiol. Cell Physiol., 2003, 285, C813-C822.

SMILES	IC50 (PANC 1)	inhibition at 10 µM (PI3K α)	IC50 (U 373)	IC50 (A549)	IC50 (PC3)	inhibition at 10 µM (mTOR)	IC50 (TNF-α)
Cc1cccc(S(=O)(=O)n2c(=O)n(-c3ccc(C(C)(C)C#N)cc3)c3c4cc(Br)ccc4ncc32)c1 [Example 3, 2-(4-(8-Bromo-2-oxo-3-(m-tolylsulfonyl)-2,3-dihydro-1H-imidazo[4,5-c]quinolin-1-yl)phenyl)-2-methylpropanenitrile]	1 to 3 µM	10 to 50%	> 3 µM	1 to 3 µM	≤ 1 µM	–	–
C/C=C/C(=O)n1c(=O)n(-c2ccc(C(C)(C)C#N)cc2)c2c3cc(Br)ccc3ncc21 [Example 27, (E)-2-(4-(8-Bromo-3-but-2-enoyl-2-oxo-2,3-dihydro-1H-imidazo[4,5-c]quinolin-1-yl)phenyl)-2-methylpropanenitrile]	≤ 1 µM	> 50%	–	≤ 1 µM	≤ 1 µM	> 50%	≤ 1 µM
CC(C)(C#N)c1ccc(-n2c(=O)n(C(=O)c3ccccc3)c3cnc4ccc(Br)cc4c32)cc1 [Example 30, 2-(4-(3-Benzoyl-8-bromo-2-oxo-2,3-dihydro-1H-imidazo[4,5-c]quinolin-1-yl)phenyl)-2-methylpropanenitrile]	1 to 3 µM	10 to 50%	≤ 1 µM	1 to 3 µM	1 to 3 µM	10 to 50%	≤ 1 µM
CC(C)(C#N)c1ccc(-n2c(=O)n(C(=O)c3ccccc3)c3cnc4ccc(Cl)cc4c32)cc1 [Example 37, 2-(4-(3-Benzoyl-8-chloro-2-oxo-2,3-dihydro-1H-imidazo[4,5-c]quinolin-1-yl)phenyl)-2-methylpropanenitrile]	–	–	> 3 µM	1 to 3 µM	1 to 3 µM	10 to 50%	≤ 1 µM
C/C=C/C(=O)n1c(=O)n(-c2ccc(C(C)(C)C#N)cc2)c2c3cc(Cl)ccc3ncc21 [Example 38, (E)-2-(4-(3-But-2-enoyl-8-chloro-2-oxo-2,3-dihydro-1H-imidazo[4,5-c]quinolin-1-yl)phenyl)-2-methylpropanenitrile]	≤ 1 µM	> 50%	–	≤ 1 µM	≤ 1 µM	> 50%	≤ 1 µM
